ChEMBL document CHEMBL4270534, “Novel carbazole-triazole conjugates as DNA-targeting membrane active potentiators against clinical isolated fungi” (Eur J Med Chem, 2018)
Converted amounts (≈) assume the structure as drawn.

Assays:
Type in all cases: functional
Klebsiella pneumoniae = assay: Antibacterial activity against Klebsiella pneumoniae after 24 hrs by micro broth dilution method
Staphylococcus aureus [1] = assay: Antibacterial activity against Staphylococcus aureus ATCC 25923 after 24 hrs by micro broth dilution method; details: ATCC 25923, 24 h
Acinetobacter baumannii = assay: Antibacterial activity against Acinetobacter baumannii after 24 hrs by micro broth dilution method
Candida albicans [2] = assay: Antifungal activity against Candida albicans ATCC 90023 after 24 hrs by two-fold broth microdilution assay; details: ATCC 90023, 24 h
Candida parapsilosis [3] = assay: Antifungal activity against Candida parapsilosis ATCC 22019 after 24 hrs by two-fold broth microdilution assay; details: Lodderomyces parapsilosis, ATCC 22019, 24 h
Pseudomonas aeruginosa [4] = assay: Antibacterial activity against Pseudomonas aeruginosa ATCC 27853 after 24 hrs by micro broth dilution method; details: ATCC 27853, 24 h
Candida albicans [5] = assay: Antifungal activity against Candida albicans after 24 hrs by two-fold broth microdilution assay
Aspergillus fumigatus [6] = assay: Antifungal activity against Aspergillus fumigatus after 24 hrs by two-fold broth microdilution assay
Staphylococcus aureus [7] = assay: Antibacterial activity against methicillin-resistant Staphylococcus aureus after 24 hrs by micro broth dilution method
Escherichia coli [8] = assay: Antibacterial activity against Escherichia coli ATCC 25922 after 24 hrs by micro broth dilution method; details: ATCC 25922, 24 h
Staphylococcus aureus [9] = assay: Antibacterial activity against Staphylococcus aureus after 24 hrs by micro broth dilution method
Staphylococcus aureus [10] = assay: Antibacterial activity against Staphylococcus aureus ATCC 29213 after 24 hrs by micro broth dilution method; details: ATCC 29213, 24 h
Escherichia coli [11] = assay: Antibacterial activity against Escherichia coli after 24 hrs by micro broth dilution method
Candida tropicalis [12] = assay: Antifungal activity against Candida tropicalis after 24 hrs by two-fold broth microdilution assay
Pseudomonas aeruginosa [13] = assay: Antibacterial activity against Pseudomonas aeruginosa after 24 hrs by micro broth dilution method
Enterococcus faecalis = assay: Antibacterial activity against Enterococcus faecalis after 24 hrs by micro broth dilution method
Candida albicans [14] = assay: Fungicidal activity against Candida albicans incubated for 24 hrs followed by plating onto tryptic soy agar medium and measured after 24 hrs by broth microdilution method
Candida parapsilosis [15] = assay: Ratio of MFC to MIC for Candida parapsilosis ATCC 22019
Candida tropicalis [16] = assay: Synergistic antifungal activity against Candida tropicalis assessed as FIC index after 18 hrs in presence of fluconazole by checkerboard assay
Candida parapsilosis [17] = assay: Fungicidal activity against Candida parapsilosis ATCC 22019 incubated for 24 hrs followed by plating onto tryptic soy agar medium and measured after 24 hrs by broth microdilution method; details: Lodderomyces parapsilosis, ATCC 22019, 24 h
Aspergillus fumigatus [18] = assay: Synergistic antifungal activity against Aspergillus fumigatus assessed as FIC index after 18 hrs in presence of fluconazole by checkerboard assay
Candida tropicalis [19] = assay: Ratio of MFC to MIC for Candida tropicalis
Candida albicans [20] = assay: Synergistic antifungal activity against Candida albicans after 18 hrs in presence of fluconazole by checkerboard assay
Candida albicans [21] = assay: Ratio of MFC to MIC for Candida albicans
Aspergillus fumigatus [22] = assay: Synergistic antifungal activity against Aspergillus fumigatus after 18 hrs in presence of fluconazole by checkerboard assay
Candida tropicalis [23] = assay: Synergistic antifungal activity against Candida tropicalis after 18 hrs in presence of fluconazole by checkerboard assay
Candida tropicalis [24] = assay: Fungicidal activity against Candida tropicalis incubated for 24 hrs followed by plating onto tryptic soy agar medium and measured after 24 hrs by broth microdilution method
Candida albicans [25] = assay: Synergistic antifungal activity against Candida albicans assessed as FIC index after 18 hrs in presence of fluconazole by checkerboard assay
Candida albicans [26] = assay: Antifungal activity against Candida albicans assessed as ratio of MIC after and before 10 serial passages

Row | Compound | MIC (Klebsiella pneumoniae) [µg/mL] | MIC (Staphylococcus aureus [1]) [µg/mL] | MIC (Acinetobacter baumannii) [µg/mL] | MIC (Candida albicans [2]) [µg/mL] | MIC (Candida parapsilosis [3]) [µg/mL] | MIC (Pseudomonas aeruginosa [4]) [µg/mL] | MIC (Candida albicans [5]) [µg/mL] | MIC (Aspergillus fumigatus [6]) [µg/mL] | MIC (Staphylococcus aureus [7]) [µg/mL] | MIC (Escherichia coli [8]) [µg/mL] | MIC (Staphylococcus aureus [9]) [µg/mL] | MIC (Staphylococcus aureus [10]) [µg/mL] | MIC (Escherichia coli [11]) [µg/mL] | MIC (Candida tropicalis [12]) [µg/mL] | MIC (Pseudomonas aeruginosa [13]) [µg/mL] | MIC (Enterococcus faecalis) [µg/mL] | MFC (Candida albicans [14]) [µg/mL] | Ratio (Candida parapsilosis [15]) | MFC (Candida parapsilosis [17]) [µg/mL] | Ratio (Candida tropicalis [19]) | other results
1 | CC(C)(C)c1ccc2c(c1)c1cc(C(C)(C)C)ccc1n2CC(O)(Cn1cncn1)c1ccc(F)cc1F (stereo not drawn) | 32 (≈ 61.9 µM) | 32 (≈ 61.9 µM) | 256 (≈ 496 µM) | 128 (≈ 248 µM) | 64 (≈ 124 µM) | 64 (≈ 124 µM) | 64 (≈ 124 µM) | 256 (≈ 496 µM) | 64 (≈ 124 µM) | 128 (≈ 248 µM) | 256 (≈ 496 µM) | 256 (≈ 496 µM) | 128 (≈ 248 µM) | 64 (≈ 124 µM) | 128 (≈ 248 µM) | 128 (≈ 248 µM) | – | – | – | – | –
2 | OC(Cn1cncn1)(Cn1c2ccccc2c2ccccc21)c1ccc(F)cc1F (stereo not drawn) | 64 (≈ 158 µM) | 32 (≈ 79.1 µM) | 128 (≈ 317 µM) | 16 (≈ 39.6 µM) | 8 (≈ 19.8 µM) | 256 (≈ 633 µM) | 32 (≈ 79.1 µM) | 128 (≈ 317 µM) | 64 (≈ 158 µM) | 128 (≈ 317 µM) | 64 (≈ 158 µM) | 32 (≈ 79.1 µM) | 128 (≈ 317 µM) | 8 (≈ 19.8 µM) | 128 (≈ 317 µM) | 16 (≈ 39.6 µM) | 32 (≈ 79.1 µM) | 4 | 32 (≈ 79.1 µM) | 2 | fractional inhibitory concentration index (FICI) (Candida tropicalis [16]): 1; fractional inhibitory concentration index (FICI) (Aspergillus fumigatus [18]): 0.37; MIC (Candida albicans [20]): 2 µg/mL; Ratio (Candida albicans [21]): 1; MIC (Aspergillus fumigatus [22]): 32 µg/mL; MIC (Candida tropicalis [23]): 4 µg/mL; MFC (Candida tropicalis [24]): 16 µg/mL (≈ 39.6 µM); fractional inhibitory concentration index (FICI) (Candida albicans [25]): 0.56
3 | OC(Cn1cncn1)(Cn1c2ccccc2c2ccc(Br)cc21)c1ccc(F)cc1F (stereo not drawn) | 128 (≈ 265 µM) | 16 (≈ 33.1 µM) | 64 (≈ 132 µM) | 16 (≈ 33.1 µM) | 16 (≈ 33.1 µM) | 128 (≈ 265 µM) | 16 (≈ 33.1 µM) | 64 (≈ 132 µM) | 16 (≈ 33.1 µM) | 64 (≈ 132 µM) | 64 (≈ 132 µM) | 32 (≈ 66.2 µM) | 64 (≈ 132 µM) | 4 (≈ 8.28 µM) | 64 (≈ 132 µM) | 32 (≈ 66.2 µM) | 16 (≈ 33.1 µM) | 2 | 32 (≈ 66.2 µM) | 1 | fractional inhibitory concentration index (FICI) (Candida tropicalis [16]): 1.5; fractional inhibitory concentration index (FICI) (Aspergillus fumigatus [18]): 0.32; MIC (Candida albicans [20]): 4 µg/mL; Ratio (Candida albicans [21]): 1; MIC (Aspergillus fumigatus [22]): 16 µg/mL; MIC (Candida tropicalis [23]): 4 µg/mL; MFC (Candida tropicalis [24]): 4 µg/mL (≈ 8.28 µM); fractional inhibitory concentration index (FICI) (Candida albicans [25]): 1.25
4 | OC(Cn1cncn1)(Cn1cncn1)c1ccc(F)cc1F [FLUCONAZOLE] | – | – | – | 2 (≈ 6.53 µM) | 4 (≈ 13.1 µM) | – | 4 (≈ 13.1 µM) | 256 (≈ 836 µM) | – | – | – | – | – | 8 (≈ 26.1 µM) | – | – | – | – | – | – | Ratio (Candida albicans [26]): 8
5 | OC(Cn1cncn1)(Cn1c2ccccc2c2cc(Br)ccc21)c1ccc(F)cc1F (stereo not drawn) | 128 (≈ 265 µM) | 16 (≈ 33.1 µM) | 64 (≈ 132 µM) | 32 (≈ 66.2 µM) | 8 (≈ 16.6 µM) | 128 (≈ 265 µM) | 8 (≈ 16.6 µM) | 64 (≈ 132 µM) | 16 (≈ 33.1 µM) | 32 (≈ 66.2 µM) | 32 (≈ 66.2 µM) | 16 (≈ 33.1 µM) | 32 (≈ 66.2 µM) | 4 (≈ 8.28 µM) | 64 (≈ 132 µM) | 32 (≈ 66.2 µM) | 16 (≈ 33.1 µM) | 1 | 8 (≈ 16.6 µM) | 8 | fractional inhibitory concentration index (FICI) (Candida tropicalis [16]): 1.5; fractional inhibitory concentration index (FICI) (Aspergillus fumigatus [18]): 0.32; MIC (Candida albicans [20]): 2 µg/mL; Ratio (Candida albicans [21]): 2; MIC (Aspergillus fumigatus [22]): 16 µg/mL; MIC (Candida tropicalis [23]): 4 µg/mL; MFC (Candida tropicalis [24]): 32 µg/mL (≈ 66.2 µM); fractional inhibitory concentration index (FICI) (Candida albicans [25]): 0.75
6 | OC(Cn1cncn1)(Cn1c2ccc(Br)cc2c2cc(Br)ccc21)c1ccc(Cl)c(Cl)c1 (stereo not drawn) | 128 (≈ 215 µM) | 16 (≈ 26.9 µM) | 128 (≈ 215 µM) | 32 (≈ 53.8 µM) | 16 (≈ 26.9 µM) | 32 (≈ 53.8 µM) | 4 (≈ 6.72 µM) | 32 (≈ 53.8 µM) | 8 (≈ 13.4 µM) | 32 (≈ 53.8 µM) | 64 (≈ 108 µM) | 32 (≈ 53.8 µM) | 64 (≈ 108 µM) | 8 (≈ 13.4 µM) | 64 (≈ 108 µM) | 16 (≈ 26.9 µM) | 16 (≈ 26.9 µM) | 2 | 32 (≈ 53.8 µM) | 1 | Ratio (Candida albicans [21]): 4; MFC (Candida tropicalis [24]): 8 µg/mL (≈ 13.4 µM)
